Paper PMC5344518, “Anti-trypanosomal activity of non-peptidic nitrile-based cysteine protease inhibitors” (PLoS Neglected Tropical Diseases, 2017)
Read-outs that look alike come from different tables or passages of the source. Marks after values point to notes of the source that are not given here.

How the values were obtained:
[1] = test system: amastigote forms of T. cruzi CL Brener strain; test: Anti-trypanosomal activity assay (beta-galactosidase reporter, infected LLC-MK2 cells); assay type: cell-based; details: Trypanosoma cruzi
Experimental: Assays were performed against amastigote forms of T. cruzi CL Brener strain, which expresses β-galactosidase derived from Escherichia coli, infecting monkey kidney (LLC-MK2) cells as described. Previously, LLC-MK2 host cells were cultivated in 96-wells microplates (10^3 cells/well). […] Then, the wells were washed with PBS to remove the extracellular parasites and the tested compounds were added in the final concentrations of 0.031, 0.125, 0.5, 2.0, 8.0, 32.0, 128 and 512 μM. After this, the microplates were incubated at 37°C, in CO2 atmosphere (5%), for 5 days. Then, 10 μL of FluoReporter lacZ/Galactosidase Quantitation Kit (Molecular Probes, ThermoFisher Scientific) were added and after 30 minutes the fluorometric reaction was read in a microplate reader (Synergy H1, Biotek) at 386 nm excitation and 448 nm emission. The metabolism of the substrate is directly correlated with the amount of β-galactosidase activity and, therefore, the number amastigotes. The percentage of activity for each compound was determined from the following formula: %activity = 100 –{[(X-PC)/(NC-PC)]x100}, where the optical density values of the samples (X), the positive controls (PC) and negative controls (NC) were used. Culture medium alone was used as positive control (PC) and cells with medium and 0.6% DMSO (v/v) as negative control (NC). All assays were performed in triplicate with two independent experiments.

LLC-MK2 cells = test: Cytotoxicity in LLC-MK2 cells; assay type: cell-based, monkey; details: % cytotoxicity in LLC-MK2 cells at 128 μM; standard deviation (N = 6) in parentheses
Excerpt: Table 2 Anti-trypanosomal activity of cysteine protease inhibitors. | column: Cytotox LLC-MK2 ^c

[2] = test system: Balb/C 3T3 clone A31 cells; test: MTT colorimetric cytotoxicity assay; assay type: cell-based, mouse; details: % cytotoxicity in Balb/C 3T3 clone A31 cells at 128 μM; standard deviation (N = 8) in parentheses
Experimental: Inhibition values were determined in the cell-based assay as previously described. […] Cells were plated at a concentration of 10^5 cell/mL in 96-well plates and incubated for 24 h. […] The cell viability was assessed during 24, 48 and 72 h using the MTT (Sigma-Aldrich) reagent, with an incubation time of 3 h. Formazan crystals were dissolved using a solubility reagent composed of DMSO, glacial acetic acid and […] for 1 h. The readout was obtained using Biotek Synergy HT plate reader at 570 nm. Benznidazole was used as control. This assay was done in quadruplicate in two independent experiments. Statistical analyses were made in GraphPad Prism 5. Concentration-response curves were fitted for the best compounds and the statistical parameters are provided with the graphs in S9 Fig in the supplemental material.

Recombinant cruzain = target: T1, Recombinant cruzain (Trypanosoma cruzi, UniProt P25779); test: Enzyme kinetic assay for cruzain (Z-FR-AMC hydrolysis); assay type: biochemical; details: pKi = -log10(Ki/M); uncertainty in parentheses; 37°C, pH 5.5
T1 construct: consisting of the catalytic domain of cruzipain but excluding the carboxy-terminal extension; made in house
Experimental: Recombinant cruzain, consisting of the catalytic domain of cruzipain but excluding the carboxy-terminal extension, was expressed and purified as previously described. Enzyme kinetic assays for cruzain were carried out at 37°C in 200 μL of a solution containing 100 mM acetate buffer pH 5.5, 300 mM NaCl, 5 mM dithiothreitol (DTT), 5% v/v dimethyl sulfoxide (DMSO), 0.01% v/v Triton X-100 and 0.15 nM cruzain, using Corning® 96-well black flat bottom microplates. (S)-N-(1-((cyanomethyl)amino)-1-oxo-3-phenylpropan-2-yl)benzamide was used as a positive control. The rate of the reaction was monitored using a Biotek Synergy HT plate reader through the fluorescence emission at 460 nm (excitation at 355 nm) due to the hydrolysis of the substrate Z-Phe-Arg-7-amido-4-methylcoumarin (Z-FR-AMC, Sigma-Aldrich). The enzyme stock aliquot was rapidly thawed at 37°C and kept on ice until activation, in which it was incubated for 20 min. in the assay buffer (100 mM acetate pH 5.5 and 5 mM DTT) followed by additional 2 min. incubation with inhibitors before the reaction was started by the addition of the substrate.
Visual inspection and a pre-reading of plate wells were performed to check for possible precipitation and background fluorescence, respectively. Fluorescence emission spectra were also recorded for all inhibitors, using the same excitation wavelength (355 nm) as for the fluorometric assay. […] The reaction was started by the addition of varying concentrations of the substrate and the wells monitored for a total of 5 minutes of reaction. The initial velocities of the substrate hydrolysis under first-order reaction were calculated by Gen5 Biotek software based on the linear-regression coefficient from the data fitting of Relative Fluorescence Unit (mRFU) as a function of time (min).
Each experiment was performed in duplicates for each compound being tested. A control measurement in absence of inhibitor (KM) was carried out for each setup plate and the kinetic affinity constants (Ki) were calculated from non-linear fit of Michaelis-Menten curves to the data of initial velocities as a function of eight different concentrations of the substrate Z-FR-AMC from 30.0–0.8 μM. All inhibitors were evaluated in two different concentrations, which were chosen based on a previous screening (percentage of inhibition) at 1.7 μM substrate (~KM). SigmaPlot (v. 10.0) was employed for the non-linear fit and the kinetic parameters determination.

cathepsin L [3] = target: T2, cathepsin L (Homo sapiens, UniProt P07711); test: Enzyme kinetic assay for cathepsin L; assay type: biochemical; details: pKi = -log10(Ki/M); uncertainty in parentheses; 37°C, pH 5.5
Experimental: (§1) Enzyme kinetic assays for cathepsin L were performed in a similar manner to the cruzain assays at 37°C in 200 μL of a solution containing 100 mM acetate buffer pH 5.5, 300 mM NaCl, 1 mM dithiothreitol (DTT), 1 mM EDTA, 5% v/v dimethyl sulfoxide (DMSO), 0.01% v/v Triton X-100 and 0.30 nM cathepsin L, using Corning® 96-well black flat bottom microplates. Using the QFRET technology, compounds 9–12 were tested for inhibition of cathepsin L-mediated cleavage of a synthetic peptide Z-Phe-Arg-AMC (10 μM final concentration) using 0.1 nM [final] human Cat L (prepared in-house). […]

cathepsin L [4] = target: T2, cathepsin L; details: pIC50 = -log10(IC50/M); cited from earlier work
Cathepsin K = details: pIC50 = -log10(IC50/M); cited from earlier work
Cathepsin B = details: pIC50 = -log10(IC50/M); cited from earlier work
Cathepsin S = details: pIC50 = -log10(IC50/M); cited from earlier work
human Cat L = target: T3, human Cat L (Homo sapiens, UniProt P07711); test: Cat L inhibition assay (QFRET, Z-Phe-Arg-AMC cleavage); assay type: biochemical; details: pIC50 = -log10(IC50/M); determined using the Cat L inhibition assay method of ref. 24; pH 6.4; read-out: Cathepsin L pIC50 (converted)
T3 construct: made in house
Experimental: as §1

[5] = 120 h, pEC50 = -log10(EC50/M), T. cruzi CL Brener amastigotes in LLC-MK2 cells, 5 days, read-out: pEC50 (anti-trypanosomal activity) (converted)
[6] = LLC-MK2, 0.125 μM, standard deviation (N = 6) in parentheses, read-out: %activity at 0.125 μM
[7] = LLC-MK2, 0.5 μM, standard deviation (N = 6) in parentheses, read-out: %activity at 0.5 μM
[8] = LLC-MK2, 2 μM, standard deviation (N = 6) in parentheses, read-out: %activity at 2 μM
[9] = LLC-MK2, 8 μM, standard deviation (N = 6) in parentheses, read-out: %activity at 8 μM
[10] = LLC-MK2, T. cruzi CL Brener strain, read-out: EC50 (anti-trypanosomal activity)

T1 sequence (P25779 123-337 limits assumed): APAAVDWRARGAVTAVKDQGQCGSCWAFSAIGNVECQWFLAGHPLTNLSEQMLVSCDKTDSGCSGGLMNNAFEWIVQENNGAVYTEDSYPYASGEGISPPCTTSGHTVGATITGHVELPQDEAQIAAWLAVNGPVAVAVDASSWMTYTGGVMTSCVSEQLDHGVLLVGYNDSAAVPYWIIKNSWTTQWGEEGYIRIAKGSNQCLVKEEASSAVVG
T3 sequence (P07711 114-333): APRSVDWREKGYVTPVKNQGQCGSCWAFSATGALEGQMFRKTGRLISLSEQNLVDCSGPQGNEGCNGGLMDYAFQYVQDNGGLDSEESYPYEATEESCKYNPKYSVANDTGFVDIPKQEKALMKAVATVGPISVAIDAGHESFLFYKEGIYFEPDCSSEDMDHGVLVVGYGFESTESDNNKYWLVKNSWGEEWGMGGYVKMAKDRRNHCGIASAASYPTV
T2 sequence (P07711 114-333, species assumed): as the sequence (P07711 114-333) above

Structure (SMILES) | EC50 [1, 5] | inhibition at 0.125 µM [1, 6] | inhibition at 0.5 µM [1, 7] | inhibition at 2 µM [1, 8] | inhibition at 8 µM [1, 9] | Cytotox LLC-MK2 (LLC-MK2 cells) | Cytotox Balb/C 3TC [2] | Ki (Recombinant cruzain) | Ki (cathepsin L [3]) | Cathepsin L pIC50 (cathepsin L [4]) | Cathepsin K pIC50 (Cathepsin K) | Cathepsin B pIC50 (Cathepsin B) | Cathepsin S pIC50 (Cathepsin S) | EC50 [1, 10] | IC50 (human Cat L) | inhibition at 0.125 µM ([1]; LLC-MK2, read-out: %activity at 0.125 μM) | inhibition at 0.5 µM ([1]; LLC-MK2, read-out: %activity at 0.5 μM) | inhibition at 2 µM ([1]; LLC-MK2, read-out: %activity at 2 μM) | inhibition at 8 µM ([1]; LLC-MK2, read-out: %activity at 8 μM)
O=C(Cn1ccnc1[N+](=O)[O-])NCc1ccccc1 [Compound 1, benznidazole] | 2510 nM | 3% | 7% | 33% | 59% | 41 (8) % | 0 (0) % |  |  |  |  |  |  |  |  |  |  |  | 
CC(C)(F)C[C@H](N[C@@H](c1ccc(-c2ccc(S(C)(=O)=O)cc2)cc1)C(F)(F)F)C(=O)NC1(C#N)CC1 [Compound 4, odanacatib] | 2510 nM | 22% | 28% | 36% | 44% | 31 (4) % | 27 (15) % | 126 nM | 6310 nM | 5.5 ^d | 9.7 ^d | 6.0 ^d | 7.2 ^d |  |  |  |  |  | 
N#CC1(NC(=O)[C@H](Cc2ccccc2)N[C@H](c2ccccc2)C(F)(F)F)CC1 [Compound 5, (S)-N-(1-cyanocyclopropyl)-3-phenyl-2-(((R)-2,2,2-trifluoro-1-phenyl-ethyl)amino)propanamide] | 126 nM | 44% | 55% | 62% | 70% | 0 (0) % | 1 (7) % | 2510 nM | 794 nM |  |  |  |  | 120 nM |  |  |  |  | 
N#CCNC(=O)[C@@H]1CCCC[C@H]1C(=O)N1CCCCC1 [Compound 7] |  | 0% | 2% | 9% | 12% | 4 (3) % | 2 (7) % | 7940 nM |  | < 4 ^e | 7.1 ^e | 5.1 ^e | 5.7 ^e |  |  |  |  |  | 
N#CCNC(=O)[C@@H]1CCCC[C@H]1C(=O)N1CCN(c2ccccc2)CC1 [Compound 8] |  | 1% | 7% | 21% | 35% | 29 (8) % | 0 (0) % | 5010 nM |  | < 4 ^e | 8.1 ^e | 6.3 ^e | 6.0 ^e |  |  |  |  |  | 
CS(=O)(=O)c1ccc(N2CCN(C(=O)[C@@H]3CCCC[C@H]3C(=O)NC3(C#N)CC3)CC2)cc1 [Compound 9] |  | 6% | 15% | 30% | 33% | 0 (0) % | 3 (7) % | 5010 nM |  |  | 7.7 ^g | 5.6 ^g | 5.7 ^g |  | > 10000 nM |  |  |  | 
COc1ccc(N2CCN(C(=O)[C@@H]3CCCC[C@H]3C(=O)NC3(C#N)CC3)[C@H](C)C2)cc1OC [Compound 10] |  |  |  |  |  | 15(3) % | 0 (0) % | 1260 nM |  |  | 8.4 ^g | 5.7 ^g | 5.8 ^g |  | > 10000 nM | 6% | 22% | 26% | 28%
COc1cc(N2CCN(C(=O)[C@@H]3CCCC[C@H]3C(=O)NC3(C#N)CC3)[C@H](C)C2)ccc1C1CC1 [Compound 11] | 251 nM | 33% | 62% | 76% | 83% | 36 (7) % | 0 (0) % | 2510 nM |  |  | 8.5 ^g | 5.9 ^g | 5.9 ^g | 250 nM | > 10000 nM |  |  |  | 
Cc1nn(C)c2cc(N3CCN(C(=O)[C@@H]4CCCC[C@H]4C(=O)NC4(C#N)CC4)[C@H](C)C3)ccc12 [Compound 12] | 1260 nM | 20% | 40% | 45% | 50% | 8 (2) % | 0 (0) % | 3160 nM |  |  | 8.0 ^g | 6.1 ^g | 5.9 ^g | 1300 nM | > 10000 nM |  |  |  | 
